The record followed here is the OligoGym collection.

HELM strings list units from the 5' end as sugar, base in round brackets, then linkage (d deoxyribose, r ribose, m 2'-O-methyl, p phosphodiester). Strings are as the collection lists them, not checked against the first reports. ss, as = sense and antisense strand; [fl2r] = 2'-fluoro
Note: test system not given here.

The conditions of the data set: siRNA.
“RNA1{r(U)p.m(U)p.r(A)p.r(C)p.r(A)p.r(A)p.r(A)p.r(G)p.r(G)p.r(A)p.r(U)p.r(C)p.r(U)p.r(C)p.r(C)p.r(U)p.r(C)p.r(C)p.r(C)p.r(T)p.r(T)}|RNA2{r(G)p.r(G)p.r(G)p.r(A)p.r(G)p.r(G)p.r(A)p.r(G)p.r(A)p.r(U)p.r(C)p.r(C)p.r(U)p.r(U)p.r(U)p.r(G)p.m(U)p.r(A)p.r(A)p.r(T)p.r(T)}$$$RNA1{StrandType:ss}|RNA2{StrandType:as}$”: the target mRNA knockdown was 69%.
“RNA1{r(U)p.m(U)p.r(G)p.r(G)p.r(G)p.r(G)p.r(A)p.r(A)p.r(G)p.r(C)p.r(G)p.r(G)p.r(C)p.r(C)p.r(G)p.r(G)p.r(C)p.r(G)p.r(G)p.r(T)p.r(T)}|RNA2{r(C)p.r(C)p.r(G)p.r(C)p.r(C)p.r(G)p.r(G)p.r(C)p.r(C)p.r(G)p.r(C)p.r(U)p.r(U)p.r(C)p.r(C)p.r(C)p.m(C)p.r(A)p.r(A)p.r(T)p.r(T)}$$$RNA1{StrandType:ss}|RNA2{StrandType:as}$” showed a target mRNA knockdown of 82%.
For “RNA1{r(U)p.r(A)p.r(A)p.r(G)p.r(A)p.r(U)p.r(G)p.r(U)p.r(U)p.r(C)p.r(A)p.r(U)p.r(C)p.r(G)p.r(A)p.r(G)p.r(U)p.r(C)p.r(C)p.d(T)p.d(T)}|RNA2{r(G)p.r(G)p.r(A)p.r(C)p.r(U)p.r(C)p.r(G)p.r(A)p.r(U)p.r(G)p.r(A)p.r(A)p.r(C)p.r(A)p.r(U)p.r(C)p.r(U)p.r(U)p.r(A)p.d(T)p.d(T)}$$$RNA1{StrandType:ss}|RNA2{StrandType:as}$”, the target mRNA knockdown was found to be 0%.
With “RNA1{r(U)p.r(A)p.r(C)p.r(C)p.r(G)p.r(A)p.r(G)p.r(A)p.r(A)p.r(U)p.r(G)p.m(A)p.r(G)p.m(C)p.r(C)p.m(U)p.r(G)p.m(A)p.r(U)p.r(T)p.r(T)}|RNA2{m(A)p.r(U)p.m(C)p.r(A)p.m(G)p.r(G)p.m(C)p.r(U)p.m(C)p.r(A)p.m(U)p.r(U)p.m(C)p.r(U)p.m(C)p.r(G)p.m(G)p.r(U)p.m(A)p.r(T)p.r(T)}$$$RNA1{StrandType:ss}|RNA2{StrandType:as}$”, the target mRNA knockdown turned out to be 23%.
“RNA1{r(U)p.r(C)p.[fl2r](C)p.r(A)p.r(A)p.r(G)p.r(C)p.r(U)p.r(U)p.r(C)p.r(C)p.r(U)p.r(C)p.r(G)p.r(U)p.[fl2r](U)p.[fl2r](G)p.r(G)p.r(U)p.r(T)p.r(T)}|RNA2{r(A)p.r(C)p.[fl2r](C)p.[fl2r](A)p.r(A)p.r(C)p.r(G)p.r(A)p.r(G)p.r(G)p.r(A)p.r(A)p.r(G)p.r(C)p.r(U)p.[fl2r](U)p.r(G)p.r(G)p.r(A)p.r(T)p.r(T)}$$$RNA1{StrandType:ss}|RNA2{StrandType:as}$”: the target mRNA knockdown worked out at 65%.
In turn, “RNA1{r(U)p.r(C)p.m(U)p.r(A)p.m(C)p.r(A)p.r(C)p.r(C)p.r(G)p.m(C)p.r(G)p.r(C)p.m(C)p.r(C)p.r(C)p.r(C)p.r(C)p.r(U)p.r(C)p.r(T)p.r(T)}|RNA2{r(G)p.r(A)p.r(G)p.r(G)p.r(G)p.r(G)p.r(G)p.r(G)p.r(C)p.r(G)p.r(C)p.r(G)p.r(G)p.m(U)p.r(G)p.m(U)p.r(A)p.r(G)p.r(A)p.r(T)p.r(T)}$$$RNA1{StrandType:ss}|RNA2{StrandType:as}$” yielded a target mRNA knockdown of 73%.
Substance “RNA1{r(U)p.r(C)p.m(U)p.r(A)p.r(C)p.r(A)p.r(C)p.r(C)p.r(G)p.r(C)p.r(G)p.r(C)p.r(C)p.r(C)p.r(C)p.r(C)p.r(C)p.r(U)p.r(C)p.r(T)p.r(T)}|RNA2{r(G)p.r(A)p.r(G)p.r(G)p.r(G)p.r(G)p.r(G)p.r(G)p.r(C)p.r(G)p.r(C)p.r(G)p.r(G)p.r(U)p.r(G)p.m(U)p.r(A)p.r(G)p.r(A)p.r(T)p.r(T)}$$$RNA1{StrandType:ss}|RNA2{StrandType:as}$” registered a target mRNA knockdown of 79%.
In turn, “RNA1{r(U)p.r(C)p.r(C)p.m(U)p.r(A)p.r(G)p.r(C)p.m(U)p.r(G)p.r(U)p.r(C)p.r(U)p.m(U)p.r(G)p.r(U)p.r(C)p.r(C)p.r(C)p.r(U)p.r(T)p.r(T)}|RNA2{r(A)p.r(G)p.r(G)p.r(G)p.r(A)p.m(C)p.r(A)p.r(A)p.r(G)p.r(A)p.m(C)p.r(A)p.r(G)p.r(C)p.m(U)p.r(A)p.r(G)p.r(G)p.r(A)p.r(T)p.r(T)}$$$RNA1{StrandType:ss}|RNA2{StrandType:as}$” displayed a target mRNA knockdown of 68%.
“RNA1{r(U)p.r(C)p.r(C)p.m(U)p.r(A)p.r(G)p.r(C)p.r(U)p.r(G)p.r(U)p.r(C)p.r(U)p.r(U)p.r(G)p.r(U)p.r(C)p.r(C)p.r(C)p.r(U)p.r(T)p.r(T)}|RNA2{r(A)p.r(G)p.r(G)p.r(G)p.r(A)p.r(C)p.r(A)p.r(A)p.r(G)p.r(A)p.r(C)p.r(A)p.r(G)p.r(C)p.m(U)p.r(A)p.r(G)p.r(G)p.r(A)p.r(T)p.r(T)}$$$RNA1{StrandType:ss}|RNA2{StrandType:as}$” had a target mRNA knockdown of 71%.
Substance “RNA1{r(U)p.r(C)p.r(C)p.r(A)p.r(A)p.r(G)p.r(C)p.r(U)p.r(U)p.r(C)p.r(C)p.r(U)p.r(C)p.r(G)p.r(U)p.r(U)p.r(G)p.r(G)p.r(U)p.r(T)p.r(T)}|RNA2{r(A)p.r(C)p.[fl2r](C)p.r(A)p.r(A)p.r(C)p.r(G)p.r(A)p.r(G)p.r(G)p.r(A)p.r(A)p.r(G)p.r(C)p.r(U)p.[fl2r](U)p.r(G)p.r(G)p.r(A)p.r(T)p.r(T)}$$$RNA1{StrandType:ss}|RNA2{StrandType:as}$” had a target mRNA knockdown of 71%.
“RNA1{r(U)p.r(C)p.r(C)p.r(C)p.r(U)p.r(U)p.r(C)p.m(C)p.r(A)p.r(C)p.r(C)p.r(G)p.r(C)p.m(C)p.r(A)p.m(U)p.r(A)p.r(U)p.r(U)p.r(T)p.r(T)}|RNA2{r(A)p.r(A)p.m(U)p.r(A)p.m(U)p.r(G)p.r(G)p.r(C)p.r(G)p.r(G)p.m(U)p.r(G)p.r(G)p.r(A)p.r(A)p.r(G)p.r(G)p.r(G)p.r(A)p.r(T)p.r(T)}$$$RNA1{StrandType:ss}|RNA2{StrandType:as}$” returned a target mRNA knockdown of 47%.
In the case of “RNA1{r(U)p.r(C)p.r(C)p.r(C)p.r(U)p.r(U)p.r(C)p.r(C)p.r(A)p.r(C)p.r(C)p.r(G)p.r(C)p.r(C)p.r(A)p.m(U)p.r(A)p.r(U)p.r(U)p.r(T)p.r(T)}|RNA2{r(A)p.r(A)p.m(U)p.r(A)p.r(U)p.r(G)p.r(G)p.r(C)p.r(G)p.r(G)p.r(U)p.r(G)p.r(G)p.r(A)p.r(A)p.r(G)p.r(G)p.r(G)p.r(A)p.r(T)p.r(T)}$$$RNA1{StrandType:ss}|RNA2{StrandType:as}$”, the target mRNA knockdown worked out at 49%.
The substance “RNA1{r(U)p.r(C)p.r(C)p.r(G)p.r(G)p.r(C)p.[fl2r](U)p.r(A)p.r(A)p.r(C)p.r(U)p.r(C)p.[fl2r](U)p.r(G)p.r(A)p.r(G)p.r(G)p.r(A)p.r(C)p.r(T)p.r(T)}|RNA2{r(G)p.r(U)p.r(C)p.r(C)p.r(U)p.[fl2r](C)p.r(A)p.r(G)p.r(A)p.r(G)p.r(U)p.r(U)p.r(A)p.r(G)p.r(C)p.r(C)p.[fl2r](G)p.r(G)p.r(A)p.r(T)p.r(T)}$$$RNA1{StrandType:ss}|RNA2{StrandType:as}$” yielded a target mRNA knockdown of 85%.
“RNA1{r(U)p.r(C)p.r(C)p.r(G)p.r(G)p.r(C)p.[fl2r](U)p.r(A)p.r(A)p.r(C)p.r(U)p.r(C)p.r(U)p.r(G)p.r(A)p.r(G)p.r(G)p.r(A)p.r(C)p.r(T)p.r(T)}|RNA2{r(G)p.r(U)p.r(C)p.r(C)p.r(U)p.r(C)p.r(A)p.r(G)p.r(A)p.r(G)p.r(U)p.[fl2r](U)p.r(A)p.r(G)p.r(C)p.r(C)p.r(G)p.r(G)p.r(A)p.r(T)p.r(T)}$$$RNA1{StrandType:ss}|RNA2{StrandType:as}$” came in with a target mRNA knockdown of 82%.
